Tests used:
[1] = biological target: T1, PD brain-derived a-synuclein aggregates (Homo sapiens, UniProt P37840); experiment: Micro-radiobinding direct binding on PD brain-derived a-synuclein aggregates; details: tritiated compound 0.6 to 200 nM
T1 construct: from tissue; host or cells: frozen brain tissue of PD donors, 1% sarkosyl-insoluble pellet
Method: The procedure was adapted from the protocol described in Spillantini et al., 1998. Frozen tissue blocks from PD donors were thawed on ice and homogenized using a glass dounce homogenizer. The homogenate was then centrifuged at 11,000×g (12,700 RPM) in an ultracentrifuge (Beckman, XL100K) for 20 minutes at 4° C. using a pre-cooled 70.1 rotor (Beckman, 342184). Pellets were resuspended in extraction buffer [10 mM Tris-HCl pH 7.4, 10% sucrose, […], 1% protease inhibitor (Calbiochem 539131), 1 mM EGTA, 1% phosphatase inhibitor (Sigma P5726 and P0044)] and centrifuged at 15,000×g (14,800 RPM, a 70.1 Ti rotor) for 20 minutes at 4° C. […]
(§1) PD brain-derived a-synuclein aggregates and AD brain-derived Tau PHF aggregates were spotted onto microarray slides. […] Quantification of signal was performed by using the image analysis software Beamage (ai4R). Non-specific signal was determined with an excess of non-radiolabelled compound (2 μM) and specific binding was calculated by subtracting the non-specific signal from the total signal. Competition was calculated as percentage, where 0% was defined as the specific binding in the presence of vehicle and 100% as the values obtained in the presence of excess of the non-radiolabelled a-syn reference compound. Ki values were calculated in GraphPad Prism7 by applying a nonlinear regression curve fit using a one site, specific binding model. […]

[2] = system: AD brain-derived Tau PHF aggregates; experiment: Micro-radiobinding direct binding on AD brain-derived Tau PHF; design: species or system human; details: tritiated compound 0.6 to 200 nM
Method: The enrichment procedure was modified from Jicha et al, 1997 and Rostagno and Ghiso, 2009. Briefly, around 15 g of the AD human brain were thawed on ice and homogenized with homogenization buffer (3 ml per gram of tissue) (0.75 M NaCl in RAB buffer (100 mM 2-(N-morpholino)ethanesulfonic acid (MES), 1 mM EGTA, 0.5 mM MgSO4, 2 mM DTT, pH 6.8) supplemented with protease inhibitors (Complete; Roche 693124001)) in a glass Dounce homogenizer. […]
as §1

Direct binding in PD brain-derived a-synuclein aggregates [1]	Direct binding in AD brain-derived Tau PHF aggregates [2]	SMILES
No significant binding	No significant binding	[3H]c1cncc(N2CCc3nc(-c4cc([3H])c(N5CC[C@@H](F)C5)nc4F)sc3C2=O)c1 [[^3H]-Compound 1, tritiated 2-[2-fluoro-6-[(3R)-3-fluoropyrrolidin-1-yl]-3-pyridyl]-5-(3-pyridyl)-6,7-dihydrothiazolo[5,4-c]pyridin-4-one]
No significant binding	No significant binding	[3H]C([3H])(O)C1CCN(c2ccc(-c3nc4c(s3)C(=O)N(c3cccnc3)CC4)c(F)n2)CC1 [[^3H]-Compound 17, 2-(2-fluoro-6-(4-(hydroxymethyl-t2)piperidin-1-yl)pyridin-3-yl)-5-(pyridin-3-yl)-6,7-dihydrothiazolo[5,4-c]pyridin-4(5H)-one]

Source: patent US20260103474A1, “NOVEL COMPOUNDS FOR THE DIAGNOSIS OF TDP-43 PROTEINOPATHIES” (AC IMMUNE SA, priority 2022, published 2026)
